{"source": "patent US7632506B2", "about": "“Identification of new NY-ESO-1 epitopes recognized by CD4+ T-cells” (Ludwig Institute for Cancer Research, priority 2005, dated 2009)", "key": {"[1]": {"test_system": "CD4+ T cells", "assay": "IFN-γ ELISPOT of CD4+ T cells presensitized with overlapping NY-ESO-1 18 mer peptides", "type": "cell-based, human", "description": "Peripheral blood mono-nuclear cells (“PBMCs”) were separated from heparinized blood via Ficoll density gradient separation, using standard, art recognized techniques. Once this was done, the CD4^+ and CD8^+ T cells were separated from each other using magnetic cell sorting techniques which are well known to the art, producing CD4^+, CD8^+, and CD4^−/CD8^− cell populations.\nA series of 18 mer peptides were prepared from the amino acid sequence of NY-ESO-1 as set forth in, e.g., U.S. Pat. No. 5,804,381, incorporated by reference. The peptides were designed to cover the entire sequence of NY-ESO-1, and to provide overlap.\nThe peptides were then individually pulsed to antigen presenting cells (“APCs”). These were CD4^−/CD8^− PBMCs taken from the same subjects who had provided the CD4^+ and CD8^+ cells. These APCs were irradiated with 3000 rads, and then pulsed with one of the peptides, at a concentration of 10 μg/ml, for 1 hour, in serum free medium. These APCs were then washed, and added to the CD4^+ cells. In the pulsing experiments, the peptides were solubilized in DMSO (100%) and then diluted with PBS to a final concentration of 10% DMSO. The CD4^+ cells had been cultured in a medium of L-arginine (242 mg/l), L-asparagene (50 mg/l), L-glutamine (300 mg/l), penicillin (10 IU/ml), streptomycin (100 μg/ml), 1% non-essential amino acids, 10% HS, and 10 ng/ml of recombinant human IL-2.\n(§1) The CD4^+ T cells were restimulated weekly with 1 μg/ml of the peptide being used. On day 12, each CD4^+ culture was assayed for NY-ESO-1 peptide recognition, using the ELISPOT assay of lager, et al., Proc. Natl. Acad. Sci. USA, 97(9):4760-4765 (2000), incorporated by reference. To elaborate on this procedure, flat-bottomed, 96-well nitrocellulose plates were coated with 5 μg/ml of anti-interferon-gamma antibody and incubated overnight at 4° C. After washing with PBS, plates were blocked with 10% human serum (HS) for 1 hour at 37° C. Depending on the effector:target ratio used, various numbers of presensitized CD4^+ T-cells were added to each well along with 5×10^4 autologous peptide pulsed EBV transfected B cells (“EBV-B cells”) serving as target cells and incubated for 16 hours at 37° C. in TCM without IL-2. Plates were then washed extensively (6 times with a solution of 0.05% Tween 20/PBS), and biotinylated anti-interferon-gamma detection antibody was added at a concentration of 0.5 μg/ml. After incubation for 2 h at 37° C., plates were washed and incubated with ABC-AP Vectastain for 1 hour. Plates were washed again and developed with substrate (BCIP/NPT) until blue spots were visible. The number of blue spots/well represented the proportion of NY-ESO-1 specific CD4^+ T-cells/well was finally counted under the microscope.\nThe EBV-B-cells were generated from each patients' PBMC following standard methods and maintained in RPMI 1640 medium supplemented with 10 mM Hepes buffer, L-arginine (242 mg/l), L-asparagine (50mg/l), L-glutamine (300 mg/l), penicillin (10 IU/ml), streptomycin (100 μg/ml), 1% non-essential amino acids, and 10% FCS. […] PBMC's or EBV-B-cells were molecularly typed for HLA expression using standard procedures."}, "[2]": {"test_system": "CD4+ T cell clones NW2337-CD4-1 and NW2337-CD4-10", "assay": "51Cr release assay with peptide-pulsed EBV-B target cells", "type": "cell-based, human", "description": "In these experiments, exemplary clones NY-ESO-1 p49-66 specific CD4^+ T cell clone NW2337-CD4-1 and NY-ESO-1 p55-72 specific CD4^+ T cell clone NW2337-CD4-10 were characterized in ^51Chromium (^51Cr) release assays using peptides overlapping the sequence of each stimulation peptide. Standard ^51Cr release assay methods were used. Briefly, autologous EBV B cell target cells were labeled with 100 μCi Na2^51CrO4 for 2 hours, and pulsed with 18 mer or 20 mer NY-ESO-1 peptides (10 μg/ml) for 1 hour. Then, 1×10^3 target cells/well were incubated in 96 V- bottom microwell plates with effector cells at different E/T ratios for 4 h at 37° C. ^51Cr release was measured in the supernatant and the specific cytotoxicity was calculated using the standard methods. Polyclonal T-cell populations were preincubated with unlabeled K562 cells as competitors at a concentration of 40:1 in order to block non-specific effector reactions.\nThese experiments confirmed recognition of naturally presented NY-ESO-1 epitopes by the CD4+ T-cell clones."}, "[3]": {"test_system": "CD4+ T cell clones NW2337-CD4-1 and NW2337-CD4-10", "assay": "Peptide titration ELISPOT assay with overlapping NY-ESO-1 peptides", "type": "cell-based, human", "conditions": "peptide 10 μM to 0.1 nM pulsed onto autologous EBV-B-cells", "description": "as §1\nTo further identify the exact epitope required for CD4^+ T cell recognition by these two CD4^+ T cell clones, a peptide titration assay was performed using overlapping NY-ESO-1 peptides (FIG. 2) at concentrations between 10 μM and 0.1 nM, pulsed onto autologous EBV-B-cells and tested in ELISPOT assays (FIG. 3)."}, "[4]": {"biological_target": "T1, HLA-DQB1 03011 (Homo sapiens, UniProt P01909+P01920)", "T1 construct": "peptide pulsed allogeneic EBV-B-cells with known HLA class II types as stimulator cells; endogenous in cells; host or cells: allogeneic patient-derived EBV-transformed B-cell lines (NW-2078, NW-2081, NW-2395, NW-2234, NW-2337, NW-1100, MZ-1257)", "T1 sequence (P01920 33-261, other chains not shown)": "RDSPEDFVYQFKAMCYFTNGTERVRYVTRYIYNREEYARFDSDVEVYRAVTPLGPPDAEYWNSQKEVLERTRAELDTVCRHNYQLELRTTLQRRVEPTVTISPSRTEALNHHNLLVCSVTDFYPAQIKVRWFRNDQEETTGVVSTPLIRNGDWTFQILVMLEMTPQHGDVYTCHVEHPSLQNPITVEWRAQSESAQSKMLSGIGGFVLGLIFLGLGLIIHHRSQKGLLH", "assay": "ELISPOT with peptide pulsed allogeneic EBV-B-cells of known HLA class II type (HLA restriction)", "type": "cell-based", "conditions": "only shared allele of the recognized peptide pulsed allogenic EBV-B cell lines", "description": "In order to determine the HLA molecule to which the novel NY-ESO-1 peptides described above bind, the NW2337 CD4^+ T-cell clones NW2337-CD4-1 and NW2337-CD4-10, were tested in ELISPOT assays using a range of peptide pulsed allogeneic EBV-B-cells with known HLA class II types as stimulator cells as indicated in the following Table. The EBV-B-cell lines were HLA typed using standard methods as described above.\nThe NW2337-CD4-1 clone recognized allogenic peptide pulsed EBV-B cells from patients NW-2078, NW-2081, NW-2395, NW-2234, NW-2337, NW-1100 and MZ-1257. The allogenic EBV-B cells were recognized by the T cells when pulsed exogenously with either the NY-ESO-1 p49-66 or p55-72 as observed with autologous EBV-B cells described above. […] None of the EBV-B-cells lines that were not recognized by the T cells expressed this MHC allele. […] Again the NY-ESO-1 positive MZ-1257 EBV-B-cell line was recognized with or without exogenous peptide."}, "[5]": {"test_system": "NW2337 CD4+ T cells", "assay": "Cytokine ELISPOT assays (IFNγ, TNFα, IL4, IL10) of NW2337 CD4+ T cells", "type": "cell-based, human", "from_the_text": "All ELISPOT assay described, supra were designed to detect IFN-γ secretion by the T cell clones following specific antigen stimulation. To determine the phenotype of the NY-ESO-1 specific CD4^+ T cell clones from patient NW2337, additional ELISPOT assays were designed to detect additional cytokines.\nThe NW2337 CD4^+ T cells were stimulated with either NY-ESO-1 p49-66 and p55-72 peptides and T cells secretion of IFNγ, TNFα, IL4 and IL10measured by ELISPOT assay. […] IL4 and IL10 was not secreted by any of the NY-ESO-1 specific CD4^+ T-cell clones tested following stimulation with NY-ESO-1 p49-66 and p55-72 peptides."}, "[6]": {"test_system": "CD4+ T cells", "assay": "IFN-γ ELISPOT of CD4+ T cells presensitized with overlapping NY-ESO-1 18 mer peptides", "type": "cell-based, human", "conditions": "patient NW2337, limiting dilution"}}, "data": [{"substance": "P49-66: synthetic 18 mer peptide, amino acids 49-66 of NY-ESO-1 (GAARASGPGGGAPRGPHG; UniProt P78358 49-66, looked up, fragment) [Peptide P49-66]", "values": [{"measurement": "Patient T cells 1", "setting": "[1]; IFN-γ ELISPOT, day 12, CD4+ T cells of patient 1, autologous peptide pulsed EBV-B cells as targets", "value": "+ (+ indicates >50 spots (all + scores indicated were >100 spots))"}, {"measurement": "Patient T cells 2", "setting": "[1]; IFN-γ ELISPOT, day 12, CD4+ T cells of patient 2, autologous peptide pulsed EBV-B cells as targets", "value": "+ (+ indicates >50 spots (all + scores indicated were >100 spots))"}, {"measurement": "Patient T cells 3", "setting": "[1]; IFN-γ ELISPOT, day 12, CD4+ T cells of patient 3, autologous peptide pulsed EBV-B cells as targets", "value": "+ (+ indicates >50 spots (all + scores indicated were >100 spots))"}, {"measurement": "patients whose CD4+ T cells recognized the peptide", "setting": "[1]; three patients tested", "value": "all three patients"}, {"measurement": "lysis of peptide pulsed autologous NW-2337-EBV B-cell lines by clones NW-2337-CD4-1 and -4", "setting": "[2]", "value": "efficiently lysed"}, {"measurement": "recognition by clone NW2337-CD4-1", "setting": "[2]; autologous EBV B cells pulsed with peptide 10 μg/ml, clone generated with p49-66", "value": "recognized"}, {"measurement": "recognition by clone NW2337-CD4-10", "setting": "[2]; autologous EBV B cells pulsed with peptide 10 μg/ml, clone generated with p55-72", "value": "did not crossreact"}, {"measurement": "recognition by clone NW2337-CD4-1", "setting": "[3]", "value": "recognized"}, {"measurement": "MHC class II allele presenting the peptide to NW2337-CD4-1 T cells", "setting": "[4]", "value": "HLA-DQB1 03011"}, {"measurement": "IFN-γ secretion by stimulated T cell clones", "setting": "[5]", "value": "produced"}, {"measurement": "IL4 secretion by stimulated T cell clones", "setting": "[5]", "value": "not secreted"}, {"measurement": "IL10 secretion by stimulated T cell clones", "setting": "[5]", "value": "not secreted"}, {"measurement": "TNF-α secretion by stimulated T cell clones", "setting": "[5]", "value": "produced"}, {"measurement": "CD4+ T-cell clones generated by stimulation with peptide", "setting": "[6]", "value": 27}]}]}
